In ChEMBL document CHEMBL1148258, “Synthesis of OSW-1 analogs with modified side chains and their antitumor activities” (Bioorg Med Chem Lett, 2004) one finds IC50 data, which are given here for six molecules.

Holding throughout (assay type): functional, cell-based
In test [1] the test system is BEL-7404 tumor cell line. Nature of the test: In vitro antitumor activity of compound against 7404 cell line (human liver carcinoma cells).
Test [2] has as its system MCF7. Nature of the test: In vitro antitumor activity of compound against MCF-7 cell line (human breast cancer cells).
Test [3] concerns AGS. Nature of the test: In vitro antitumor activity of compound against AGS cell line (human stomach cancer cells).

As for CISPLATIN, the IC50 (usually the concentration that gives 50% inhibition) in test [1] (bel-7404) amounted to 8.37 µM; in test [2] (mcf7) it was 18.7 µM; in test [3] (ags), 24.1 µM.

With `COc1ccc(C(=O)OC2C(OC3C(O)COC(O[C@H]4CC5C6CC=C7C[C@@H](O)CC[C@]7(C)C6CC([C@H](C)C(=O)CCC(C)C)[C@]5(C)[C@@H]4O)C3OC(C)=O)OCC(O)C2O)cc1` (stereo partly drawn), the IC50 in test [1] (Homo sapiens, BEL-7404) stood at 0.1 µM; in test [2] (Homo sapiens, MCF7), 0.27 µM; in test [3] (Homo sapiens, AGS), 1.42 µM.

For `COc1ccc(C(=O)OC2C(OC3C(O)COC(O[C@H]4CC5C6CC=C7C[C@@H](O)CC[C@]7(C)C6CC([C@H](C)C(C)=O)[C@]5(C)[C@@H]4O)C3OC(C)=O)OCC(O)C2O)cc1` (stereo partly drawn), the IC50 came to 2.9 µM in test [1] (Homo sapiens, BEL-7404); 6.61 µM in test [2] (Homo sapiens, MCF7); 6.98 µM in test [3] (Homo sapiens, AGS).

For `COc1ccc(C(=O)OC2C(OC3C(O)COC(O[C@H]4CC5C6CC=C7C[C@@H](O)CC[C@]7(C)C6CC([C@H](C)CCCC(C)C)[C@]5(C)[C@@H]4O)C3OC(C)=O)OCC(O)C2O)cc1` (stereo partly drawn), the IC50 in test [1] (Homo sapiens, BEL-7404) is 0.063 µM; in test [2] (Homo sapiens, MCF7), 0.06 µM; in test [3] (Homo sapiens, AGS), 1.38 µM.

For the molecule `CCCC(=O)[C@@H](C)C1CC2C(CC=C3C[C@@H](O)CC[C@@]32C)C2C[C@H](OC3OCC(O)C(OC4OCC(O)C(O)C4OC(=O)c4ccc(OC)cc4)C3OC(C)=O)[C@@H](O)[C@]21C` (stereo partly drawn), the IC50 in test [1] (Homo sapiens, BEL-7404) turned out to be 0.032 µM; in test [2] (Homo sapiens, MCF7), 0.02 µM; in test [3] (Homo sapiens, AGS) it was 1.92 µM.

In the case of `COc1ccc(C(=O)OC2C(OC3C(O)COC(O[C@H]4CC5C6CC=C7C[C@@H](O)CC[C@]7(C)C6CC([C@H](C)C(O)CCC(C)C)[C@]5(C)[C@@H]4O)C3OC(C)=O)OCC(O)C2O)cc1` (stereo partly drawn), the IC50 in test [1] (Homo sapiens, BEL-7404) is 1.86 µM; in test [2] (Homo sapiens, MCF7), 1.79 µM; in test [3] (Homo sapiens, AGS), 7.26 µM.
